The results in this text go back to US7875647B2, “Heteroaryl-pyrazole derivatives as cannabinoid CB1 receptor antagonists” (Green Cross Corporation, priority 2006, dated 2011).

Each structure is given as a SMILES string.

The target in the first assay is T1, Cannabinoid-1 receptor (CB1R) (Rattus norvegicus, UniProt P20272).
T1 construct: The tissue obtained from the brain of SD rats was homogenized; from tissue; host or cells: brain of SD rats (membrane pellet of the homogenate)
T1 sequence (P20272 whole entry): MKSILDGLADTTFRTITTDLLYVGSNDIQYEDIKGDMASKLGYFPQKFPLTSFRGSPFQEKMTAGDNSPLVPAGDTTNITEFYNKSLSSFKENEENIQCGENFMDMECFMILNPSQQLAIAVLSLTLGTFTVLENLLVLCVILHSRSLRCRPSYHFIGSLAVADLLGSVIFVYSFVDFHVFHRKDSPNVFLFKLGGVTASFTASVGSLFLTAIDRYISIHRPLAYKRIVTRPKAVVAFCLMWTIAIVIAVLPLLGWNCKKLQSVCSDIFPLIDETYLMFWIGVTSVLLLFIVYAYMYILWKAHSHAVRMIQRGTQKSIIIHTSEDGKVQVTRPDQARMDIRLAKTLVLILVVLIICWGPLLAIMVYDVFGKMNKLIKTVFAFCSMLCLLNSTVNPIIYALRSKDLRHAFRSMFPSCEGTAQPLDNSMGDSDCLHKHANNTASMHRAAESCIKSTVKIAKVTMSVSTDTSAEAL
In words: Cannabinoid-1 receptor (CB1R) binding affinity assay ([3H]CP-55940, rat CB-1 receptor binding protocol). The following applies: IC50(nM), brain tissue of SD rats, [3H]CP-55940, 30° C. 60 min.
By IC50 is commonly meant the concentration at which inhibition is half-maximal. Take `C=C(C)c1c(-c2nnc(C(C)(C)C)o2)nn(-c2ccc(Cl)cc2Cl)c1-c1ccc(Br)cc1` [Example 220, 2-(5-(4-bromophenyl)-1-(2,4-dichlorophenyl)-4-(prop-1-en-2-yl)-1H-pyrazol-3-yl)-5-tert-butyl-1,3,4-oxadiazole]: the IC50 is 8.26 nM.
For `C=Cc1c(-c2nnc(C(C)(C)C)o2)nn(-c2ccc(Cl)cc2Cl)c1-c1ccc(Br)cc1` [Example 228, 2-(5-(4-bromophenyl)-1-(2,4-dichlorophenyl)-4-vinyl-1H-pyrazol-3-yl)-5-tert-butyl-1,3,4-oxadiazole], the half-inhibitory concentration (IC50) is 16.6 nM.

Staying with this assay, now noted: brain tissue of SD rats, [3H]CP-55940, 30° C. 60 min; read-out: IC50.
For the molecule `OCc1c(-c2nnc(C3(c4ccc(Cl)cc4)CC3)o2)nn(-c2ccc(Cl)cc2Cl)c1-c1ccc(Cl)cc1` [Example 201, (5-(4-chlorophenyl)-3-(5-(1-(4-chlorophenyl)cyclopropyl)-1,3,4-oxadiazol-2-yl)-1-(2,4-dichlorophenyl)-1H-pyrazol-4-yl)methanol], the 50% inhibitory concentration (IC50) came to 4.02 nM.
The same measure, in the same setting: the figure for `CC(C)(C)c1nnc(-c2nn(-c3ccc(Cl)cc3Cl)c(-c3ccc(Cl)cc3)c2C=O)o1` [Example 202, 3-(5-tert-butyl-1,3,4-oxadiazol-2-yl)-5-(4-chlorophenyl)-1-(2,4-dichlorophenyl)-1H-pyrazole-4-carbaldehyde] is 36.2 nM.
Regarding `CC(C)(C)c1nnc(-c2nn(-c3ccc(Cl)cc3Cl)c(-c3ccc(Br)cc3)c2C=O)o1` [Example 203, 5-(4-bromophenyl)-3-(5-tert-butyl-1,3,4-oxadiazol-2-yl)-1-(2,4-dichlorophenyl)-1H-pyrazole-4-carbaldehyde], the concentration for half-maximal inhibition (IC50) came to 18.8 nM.
The same measure, in the same setting: the same measure for `O=Cc1c(-c2nnc(C3(c4ccc(Cl)cc4)CC3)o2)nn(-c2ccc(Cl)cc2Cl)c1-c1ccc(Cl)cc1` [Example 204, 5-(4-chlorophenyl)-3-(5-(1-(4-chlorophenyl)cyclopropyl)-1,3,4-oxadiazol-2-yl)-1-(2,4-dichlorophenyl)-1H-pyrazole-4-carbaldehyde]: 5.39 nM; for `COCc1c(-c2nnc(C(C)(C)C)o2)nn(-c2ccc(Cl)cc2Cl)c1-c1ccc(Cl)cc1` [Example 205, 2-tert-butyl-5-(5-(4-chlorophenyl)-1-(2,4-dichlorophenyl)-4-(methoxymethyl)-1H-pyrazol-3-yl)-1,3,4-oxadiazole]: 15.4 nM; for `CCCCOCc1c(-c2nnc(C(C)(C)C)o2)nn(-c2ccc(Cl)cc2Cl)c1-c1ccc(Cl)cc1` [Example 206, 2-(4-(butoxymethyl)-5-(4-chlorophenyl)-1-(2,4-dichlorophenyl)-1H-pyrazol-3-yl)-5-tert-butyl-1,3,4-oxadiazole]: 113 nM.
In the case of `CC(O)c1c(-c2nnc(C(C)(C)C)o2)nn(-c2ccc(Cl)cc2Cl)c1-c1ccc(Cl)cc1` (stereo not drawn) [Example 207, 1-(3-(5-tert-butyl-1,3,4-oxadiazol-2-yl)-5-(4-chlorophenyl)-1-(2,4-dichlorophenyl)-1H-pyrazol-4-yl)ethanol], the half-maximal inhibitory concentration (IC50) turned out to be 10.1 nM.
As for `CC(O)c1c(-c2nnc(C(C)(C)C)o2)nn(-c2ccc(Cl)cc2Cl)c1-c1ccc(Br)cc1` (stereo not drawn) [Example 208, 1-(5-(4-bromophenyl)-3-(5-tert-butyl-1,3,4-oxadiazol-2-yl)-1-(2,4-dichlorophenyl)-1H-pyrazol-4-yl)ethanol], the 50% inhibitory concentration (IC50) came out at 6.72 nM.
Still for that read-out and setting: the figure for `CC(O)c1c(-c2nnc(C3(c4ccc(Cl)cc4)CC3)o2)nn(-c2ccc(Cl)cc2Cl)c1-c1ccc(Cl)cc1` (stereo not drawn) [Example 209, 1-(5-(4-chlorophenyl)-3-(5-(1-(4-chlorophenyl)cyclopropyl)-1,3,4-oxadiazol-2-yl)-1-(2,4-dichlorophenyl)-1H-pyrazol-4-yl)ethanol] is 5.77 nM; for `CC(F)c1c(-c2nnc(C(C)(C)C)o2)nn(-c2ccc(Cl)cc2Cl)c1-c1ccc(Cl)cc1` (stereo not drawn) [Example 210, 2-tert-butyl-5-(5-(4-chlorophenyl)-1-(2,4-dichlorophenyl)-4-(1-fluoroethyl)-1H-pyrazol-3-yl)-1,3,4-oxadiazole] it is 14.1 nM; for `CC(F)c1c(-c2nnc(C(C)(C)C)o2)nn(-c2ccc(Cl)cc2Cl)c1-c1ccc(Br)cc1` (stereo not drawn) [Example 211, 2-(5-(4-bromophenyl)-1-(2,4-dichlorophenyl)-4-(1-fluoroethyl)-1H-pyrazol-3-yl)-5-tert-butyl-1,3,4-oxadiazole] it is 12.1 nM.
For the molecule `CC(F)c1c(-c2nnc(C3(c4ccc(Cl)cc4)CC3)o2)nn(-c2ccc(Cl)cc2Cl)c1-c1ccc(Cl)cc1` (stereo not drawn) [Example 212, 2-(5-(4-chlorophenyl)-1-(2,4-dichlorophenyl)-4-(1-fluoroethyl)-1H-pyrazol-3-yl)-5-(1-(4-chlorophenyl)cyclopropyl)-1,3,4-oxadiazole], the concentration for half-maximal inhibition (IC50) turned out to be 4.97 nM.
On the same count and under the same terms, the figure for `CC(=O)c1c(-c2nnc(C(C)(C)C)o2)nn(-c2ccc(Cl)cc2Cl)c1-c1ccc(Cl)cc1` [Example 213, 1-(3-(5-tert-butyl-1,3,4-oxadiazol-2-yl)-5-(4-chlorophenyl)-1-(2,4-dichlorophenyl)-1H-pyrazol-4-yl)ethanone] is 49.4 nM.
On to `CC(=O)c1c(-c2nnc(C(C)(C)C)o2)nn(-c2ccc(Cl)cc2Cl)c1-c1ccc(Br)cc1` [Example 214, 1-(5-(4-bromophenyl)-3-(5-tert-butyl-1,3,4-oxadiazol-2-yl)-1-(2,4-dichlorophenyl)-1H-pyrazol-4-yl)ethanone], for which the half-maximal inhibitory concentration (IC50) stood at 11.9 nM.
Take `CC(=O)c1c(-c2nnc(C3(c4ccc(Cl)cc4)CC3)o2)nn(-c2ccc(Cl)cc2Cl)c1-c1ccc(Cl)cc1` [Example 215, 1-(5-(4-chlorophenyl)-3-(5-(1-(4-chlorophenyl)cyclopropyl)-1,3,4-oxadiazol-2-yl)-1-(2,4-dichlorophenyl)-1H-pyrazol-4-yl)ethanone]: the IC50 amounted to 10.8 nM.
As to `CC(=O)Oc1c(-c2nnc(C(C)(C)C)o2)nn(-c2ccc(Cl)cc2Cl)c1-c1ccc(Cl)cc1` [Example 216, 3-(5-tert-butyl-1,3,4-oxadiazol-2-yl)-5-(4-chlorophenyl)-1-(2,4-dichlorophenyl)-1H-pyrazol-4-yl acetate], the half-maximal inhibitory concentration (IC50) stood at 57.3 nM.
In the case of `CC(C)(C)c1nnc(-c2nn(-c3ccc(Cl)cc3Cl)c(-c3ccc(Cl)cc3)c2C(C)(C)O)o1` [Example 217, 2-(3-(5-tert-butyl-1,3,4-oxadiazol-2-yl)-5-(4-chlorophenyl)-1-(2,4-dichlorophenyl)-1H-pyrazol-4-yl)propan-2-ol], the IC50 was determined as 22.6 nM.
The same measure, in the same setting: the same measure for `CC(C)(C)c1nnc(-c2nn(-c3ccc(Cl)cc3Cl)c(-c3ccc(Br)cc3)c2C(C)(C)O)o1` [Example 218, 2-(5-(4-bromophenyl)-3-(5-tert-butyl-1,3,4-oxadiazol-2-yl)-1-(2,4-dichlorophenyl)-1H-pyrazol-4-yl)propan-2-ol]: 17.1 nM; for `C=C(C)c1c(-c2nnc(C(C)(C)C)o2)nn(-c2ccc(Cl)cc2Cl)c1-c1ccc(Cl)cc1` [Example 219, 2-tert-butyl-5-(5-(4-chlorophenyl)-1-(2,4-dichlorophenyl)-4-(prop-1-en-2-yl)-1H-pyrazol-3-yl)-1,3,4-oxadiazole]: 4.83 nM; for `CC(C)(C)c1nnc(-c2nn(-c3ccc(Cl)cc3Cl)c(-c3ccc(Cl)cc3)c2CF)o1` [Example 221, 2-tert-butyl-5-(5-(4-chlorophenyl)-1-(2,4-dichlorophenyl)-4-(fluoromethyl)-1H-pyrazol-3-yl)-1,3,4-oxadiazole]: 14.7 nM.
On to `CC(C)(C)c1nnc(-c2nn(-c3ccc(Cl)cc3Cl)c(-c3ccc(Br)cc3)c2CF)o1` [Example 222, 2-(5-(4-bromophenyl)-1-(2,4-dichlorophenyl)-4-(fluoromethyl)-1H-pyrazol-3-yl)-5-tert-butyl-1,3,4-oxadiazole], for which the concentration for half-maximal inhibition (IC50) was found to be 7.99 nM.
Same read-out and setting: the figure for `FCc1c(-c2nnc(C3(c4ccc(Cl)cc4)CC3)o2)nn(-c2ccc(Cl)cc2Cl)c1-c1ccc(Cl)cc1` [Example 223, 2-(5-(4-chlorophenyl)-1-(2,4-dichlorophenyl)-4-(fluoromethyl)-1H-pyrazol-3-yl)-5-(1-(4-chlorophenyl)cyclopropyl)-1,3,4-oxadiazole] is 7.89 nM.
Turning to `CC(C)(C)c1nnc(-c2nn(-c3ccc(Cl)cc3Cl)c(-c3ccc(Cl)cc3)c2C(F)F)o1` [Example 224, 2-tert-butyl-5-(5-(4-chlorophenyl)-1-(2,4-dichlorophenyl)-4-(difluoromethyl)-1H-pyrazol-3-yl)-1,3,4-oxadiazole], the IC50 was determined as 36.1 nM.
The same measure, in the same setting: the same measure for `FC(F)c1c(-c2nnc(C3(c4ccc(Cl)cc4)CC3)o2)nn(-c2ccc(Cl)cc2Cl)c1-c1ccc(Cl)cc1` [Example 225, 2-(5-(4-chlorophenyl)-1-(2,4-dichlorophenyl)-4-(difluoromethyl)-1H-pyrazol-3-yl)-5-(1-(4-chlorophenyl)cyclopropyl)-1,3,4-oxadiazole]: 12.1 nM; for `COC(C)c1c(-c2nnc(C(C)(C)C)o2)nn(-c2ccc(Cl)cc2Cl)c1-c1ccc(Cl)cc1` (stereo not drawn) [Example 226, 2-tert-butyl-5-(5-(4-chlorophenyl)-1-(2,4-dichlorophenyl)-4-(1-methoxyethyl)-1H-pyrazol-3-yl)-1,3,4-oxadiazole]: 62.7 nM.
For the molecule `C=Cc1c(-c2nnc(C(C)(C)C)o2)nn(-c2ccc(Cl)cc2Cl)c1-c1ccc(Cl)cc1` [Example 227, 2-tert-butyl-5-(5-(4-chlorophenyl)-1-(2,4-dichlorophenyl)-4-vinyl-1H-pyrazol-3-yl)-1,3,4-oxadiazole], the half-inhibitory concentration (IC50) was 16.9 nM.
On the same count and under the same terms, the figure for `C=Cc1c(-c2nnc(C3(c4ccc(Cl)cc4)CC3)o2)nn(-c2ccc(Cl)cc2Cl)c1-c1ccc(Cl)cc1` [Example 229, 2-(5-(4-chlorophenyl)-1-(2,4-dichlorophenyl)-4-vinyl-1H-pyrazol-3-yl)-5-(1-(4-chlorophenyl)cyclopropyl)-1,3,4-oxadiazole] is 14.1 nM; for `COC(=O)NC(C)c1c(-c2nnc(C(C)(C)C)o2)nn(-c2ccc(Cl)cc2Cl)c1-c1ccc(Br)cc1` (stereo not drawn) [Example 230, Methyl 1-(5-(4-bromophenyl)-3-(5-tert-butyl-1,3,4-oxadiazol-2-yl)-1-(2,4-dichlorophenyl)-1H-pyrazol-4-yl)ethylcarbamate] it is 9.01 nM.
